Consider 32 molecules from patent US10428051B2 (priority 2015, dated 2019).

Like-named read-outs stand apart in the source and are kept apart here.

For the test, the target named is human σ1 receptor (Homo sapiens, UniProt Q99720). As to the kind of experiment: biochemical. It counts as binding. Details: μ and σ1 dual (binding to the σ1 receptor and the μ-opioid receptor expressed as Ki): key to the marks not given beside the values.

Usually Ki stands for the equilibrium dissociation constant of an inhibitor or competing ligand from its target.

human σ1 receptor, sequence (Q99720 whole entry): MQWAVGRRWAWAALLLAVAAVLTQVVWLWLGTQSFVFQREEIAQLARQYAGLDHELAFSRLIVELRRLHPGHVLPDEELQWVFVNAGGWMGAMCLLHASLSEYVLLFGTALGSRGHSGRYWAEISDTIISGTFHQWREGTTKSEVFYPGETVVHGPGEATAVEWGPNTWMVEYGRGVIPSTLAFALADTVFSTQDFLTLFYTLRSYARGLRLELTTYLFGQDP

Regarding `CCC(=O)N(CC1(N2CCN(C(C)CC)CC2)CCOCC1)c1cccc(C(F)(F)F)n1` (centres unmarked) [Example 139, N-((4-(4-sec-butylpiperazin-1-yl)tetrahydro-2H-pyran-4-yl)methyl)-N-(6-(trifluoromethyl)pyridin-2-yl)propionamide], the “μ and σ1 dual (binding to the σ1 receptor and the μ-opioid receptor expressed as Ki)” value (shortened to “μ and σ1 dual”) is reported as “++”.

For `CCC(=O)N(CC1(N2CCN(CC(C)(C)F)CC2)CCOCC1)c1cccc(C(F)(F)F)n1` [Example 190, N-((4-(4-(2-fluoro-2-methylpropyl)piperazin-1-yl)tetrahydro-2H-pyran-4-yl)methyl)-N-(6-(trifluoromethyl)pyridin-2-yl)propionamide], the Ki was < 500 nM.

Turning to `CCC(=O)N(CC1(N2CCN(CCc3cccnc3)CC2)CCOCC1)c1cccc(C(F)(F)F)n1` [Example 201, N-((4-(4-(2-(pyridin-3-yl)ethyl)piperazin-1-yl)tetrahydro-2H-pyran-4-yl)methyl)-N-(6-(trifluoromethyl)pyridin-2-yl)propionamide], the “μ and σ1 dual” value is “++”.

Regarding `CCC(=O)N(CC1(N2CCN(CCC(C)C)CC2)CCOC(C)(C)C1)c1ncccc1F` (centres unmarked) [Example 168, N-(3-fluoropyridin-2-yl)-N-((4-(4-isopentylpiperazin-1-yl)-2,2-dimethyltetrahydro-2H-pyran-4-yl)methyl)propionamide], the “μ and σ1 dual” value was “++”.

For the molecule `CCC(=O)N(CC1(N2CCN(CCC(C)C)CC2)CCOC(C)(C)C1)c1cccc(C#N)n1` (centres unmarked) [Example 88, N-(6-cyanopyridin-2-yl)-N-((4-(4-isopentylpiperazin-1-yl)-2,2-dimethyltetrahydro-2H-pyran-4-yl)methyl)propionamide], the “μ and σ1 dual” value was “++”.

For `CC(=O)N(CC1(N2CCN(CC(C)C)CC2)CCOCC1)c1cccc(C(F)(F)F)n1` [Example 40, N-((4-(4-isobutylpiperazin-1-yl)tetrahydro-2H-pyran-4-yl)methyl)-N-(6-(trifluoromethyl)pyridin-2-yl)acetamide], the “μ and σ1 dual” value was “++”.

Consider `CCC(=O)N(CC1(N2CCN(Cc3ccccn3)CC2)CC1)c1ccccc1` [Example 114, N-phenyl-N-((1-(4-(pyridin-2-ylmethyl)piperazin-1-yl)cyclopropyl)methyl)propionamide], for which the inhibition constant Ki was < 500 nM.

As for `CCC(=O)N(CC1(N2CCN(CC(C)C)CC2)CCC1)c1cccc(C(F)(F)F)n1` [Example 203, N-((1-(4-isobutylpiperazin-1-yl)cyclobutyl)methyl)-N-(6-(trifluoromethyl)pyridin-2-yl)propionamide], the Ki is < 500 nM.

Turning to `CCC(=O)N(CC1(N2CCN(Cc3ccccc3)CC2)CCOCC1)c1cc(C(F)(F)F)ccn1` [Example 8, N-((4-(4-benzylpiperazin-1-yl)tetrahydro-2H-pyran-4-yl)methyl)-N-(4-(trifluoromethyl)pyridin-2-yl)propionamide], the Ki is < 500 nM.

Regarding `CCNC(=O)N(CC(C)(C)N1CCN(Cc2ccccc2)CC1)c1ccccc1` [Example 48, 1-(2-(4-benzylpiperazin-1-yl)-2-methylpropyl)-3-ethyl-1-phenylurea], the “μ and σ1 dual” value was “++”.

Take `O=C(c1cccs1)N(CC1(N2CCN(Cc3ccccc3)CC2)CCOCC1)c1ccccn1` [Example 38, N-((4-(4-benzylpiperazin-1-yl)tetrahydro-2H-pyran-4-yl)methyl)-N-(pyridin-2-yl)thiophene-2-carboxamide]: the “μ and σ1 dual” value is reported as “++”.

Regarding `CCC(=O)N(CC1(N2CCN(Cc3ccccc3)CC2)CCC1)c1cccc(C(F)(F)F)n1` [Example 197, N-((1-(4-benzylpiperazin-1-yl)cyclobutyl)methyl)-N-(6-(trifluoromethyl)pyridin-2-yl)propionamide], the Ki was < 100 nM.

Turning to `CCC(=O)N(CC1(N2CCN(CCc3ccccc3)CC2)CCCCC1)c1ccccn1` [Example 21, N-((1-(4-phenethylpiperazin-1-yl)cyclohexyl)methyl)-N-(pyridin-2-yl)propionamide], the Ki is < 500 nM.

Consider `CCC(=O)N(CC1(N2CCN(CC(C)(C)OC)CC2)CCOCC1)c1cccc(C(F)(F)F)n1` [Example 191, N-((4-(4-(2-Methoxy-2-methylpropyl)piperazin-1-yl)tetrahydro-2H-pyran-4-yl)methyl)-N-(6-(trifluoromethyl)pyridin-2-yl)propionamide], for which the Ki was > 500 nM.

`CCC(=O)N(CC1(N2CC3CN(CC(C)C)CC3C2)CCOCC1)c1cccc(C(F)(F)F)n1` (centres unmarked) [Example 199, N-((4-(5-isobutylhexahydropyrrolo[3,4-c]pyrrol-2(1H)-yl)tetrahydro-2H-pyran-4-yl)methyl)-N-(6-(trifluoromethyl)pyridin-2-yl)propionamide]: the Ki is > 500 nM.

Take `CCC(=O)N(CC1(N2CCN(Cc3ccccc3F)CC2)CC1)c1ccccc1` [Example 118, N-((1-(4-(2-fluorobenzyl)piperazin-1-yl)cyclopropyl)methyl)-N-phenylpropionamide]: the Ki is < 100 nM.

As for `CCC(=O)N(CC1(N2CCN(Cc3ccccc3)CC2)CCOCC1)c1ncccc1F` [Example 82, N-((4-(4-benzylpiperazin-1-yl)tetrahydro-2H-pyran-4-yl)methyl)-N-(3-fluoropyridin-2-yl)propionamide], the Ki is < 100 nM.

Turning to `CCC(=O)N(CC1(N2CCN(Cc3ccccc3)CC2)CC1)c1cnccc1C(F)(F)F` [Example 78, N-((1-(4-benzylpiperazin-1-yl)cyclopropyl)methyl)-N-(4-(trifluoromethyl)pyridin-3-yl)propionamide], the Ki was < 500 nM.

As to `CCC(=O)N(CC1(N2CCN(CCC(C)C)CC2)CCOC(C)(C)C1)c1ccccn1` (centres unmarked) [Example 164, N-((4-(4-isopentylpiperazin-1-yl)-2,2-dimethyltetrahydro-2H-pyran-4-yl)methyl)-N-(pyridin-2-yl)propionamide], the “μ and σ1 dual” value is listed as “++”.

`CCC(=O)N(CC1(N2CCN(CC(C)C)CC2)CCOCC1)c1cccc(C#N)n1` [Example 85, N-(6-cyanopyridin-2-yl)-N-((4-(4-isobutylpiperazin-1-yl)tetrahydro-2H-pyran-4-yl)methyl)propionamide]: the Ki was > 500 nM.

As for `CCC(=O)N(CC1(N2CCN(Cc3ccccc3)CC2)CC1)c1cccnc1` [Example 36, N-((1-(4-benzylpiperazin-1-yl)cyclopropyl)methyl)-N-(pyridin-3-yl)propionamide], the Ki was < 500 nM.

Consider `CCC(=O)N(CC1(N2CCN(Cc3ccccc3)CC2)CC1)c1cncc(F)c1` [Example 93, N-((1-(4-benzylpiperazin-1-yl)cyclopropyl)methyl)-N-(5-fluoropyridin-3-yl)propionamide], for which the Ki is < 500 nM.

As to `CCC(=O)N(CC1(N2CCN(CC(C)C)CC2)CCOC(C)(C)C1)c1cccc(C(F)(F)F)n1` (centres unmarked) [Example 160, N-((4-(4-isobutylpiperazin-1-yl)-2,2-dimethyltetrahydro-2H-pyran-4-yl)methyl)-N-(6-(trifluoromethyl)pyridin-2-yl)propionamide], the Ki is < 500 nM.

For the molecule `CCC(=O)N(CC1(N2CCN(CCC(C)C)CC2)CCOC(C)(C)C1)c1cccc(C(F)(F)F)n1` (centres unmarked) [Example 159, N-((4-(4-isopentylpiperazin-1-yl)-2,2-dimethyltetrahydro-2H-pyran-4-yl)methyl)-N-(6-(trifluoromethyl)pyridin-2-yl)propionamide], the Ki is < 100 nM.

As to `CCOCCN1CC2CN(C3(CN(C(=O)CC)c4cccc(C(F)(F)F)n4)CCOCC3)CC2C1` (centres unmarked) [Example 200, N-((4-(5-(2-ethoxyethyl)hexahydropyrrolo[3,4-c]pyrrol-2(1H)-yl)tetrahydro-2H-pyran-4-yl)methyl)-N-(6-(trifluoromethyl)pyridin-2-yl)propionamide], the Ki (read-out: μ and σ1 dual (binding to the σ1 receptor and the μ-opioid receptor expressed as Ki)) was > 500 nM.

In the case of `CCC(=O)N(CC1(N2CCN(CCOC(C)C)CC2)CCOC2(CCCC2)C1)c1cccc(C(F)(F)F)n1` (centres unmarked) [Example 174, N-((9-(4-(2-isopropoxyethyl)piperazin-1-yl)-6-oxaspiro[4.5]decan-9-yl)methyl)-N-(6-(trifluoromethyl)pyridin-2-yl)propionamide], the Ki is < 500 nM.

Consider `CN1CCC(CN(C(=O)c2nccs2)c2ccccc2)(N2CCN(Cc3ccccc3)CC2)CC1` [Example 41, N-((4-(4-benzylpiperazin-1-yl)-1-methylpiperidin-4-yl)methyl)-N-phenylthiazole-2-carboxamide], for which the Ki (combined class for both Ki-σ1 (assay A1) and Ki-μ (assay A2), human receptors, radioligand binding, read-out: μ and σ1 dual (binding to the σ1 receptor and the μ-opioid receptor expressed as Ki)) was > 500 nM.

In the case of `CC(C)(CN(C(=O)c1ccco1)c1ccccc1)N1CCN(CCc2ccccc2)CC1` [Example 44, N-(2-methyl-2-(4-phenethylpiperazin-1-yl)propyl)-N-phenylfuran-2-carboxamide], the Ki was < 100 nM.

As to `CCC(=O)N(CC1(N2CCN(CCOC(C)C)CC2)CCOC(C)(C)C1)c1cccc(C(F)(F)F)n1` (centres unmarked) [Example 161, N-((4-(4-(2-isopropoxyethyl)piperazin-1-yl)-2,2-dimethyltetrahydro-2H-pyran-4-yl)methyl)-N-(6-(trifluoromethyl)pyridin-2-yl)propionamide], the Ki is < 500 nM.

For `CCC(=O)N(CC1(N2CCN(Cc3ccccc3)CC2)CCOCC1)c1cccc(C#N)n1` [Example 84, N-((4-(4-benzylpiperazin-1-yl)tetrahydro-2H-pyran-4-yl)methyl)-N-(6-cyanopyridin-2-yl)propionamide], the Ki is < 500 nM.

As for `CCC(=O)N(CC1(N2CCN(Cc3ccccc3)CC2)CC1)c1ccc(C(F)(F)F)cn1` [Example 94, N-((1-(4-benzylpiperazin-1-yl)cyclopropyl)methyl)-N-(5-(trifluoromethyl)pyridin-2-yl)propionamide], the “μ and σ1 dual” value is reported as “++”.

For `CCC(=O)N(CC1(N2CCN(CCOC(C)C)CC2)CCOC(C)(C)C1)c1ccccn1` (centres unmarked) [Example 163, N-((4-(4-(2-isopropoxyethyl)piperazin-1-yl)-2,2-dimethyltetrahydro-2H-pyran-4-yl)methyl)-N-(pyridin-2-yl)propionamide], the Ki is > 500 nM.
